The values that follow come from publication PMC4153677, “Probing the Activity Modification Space of the Cysteine Peptidase Cathepsin K with Novel Allosteric Modifiers” (PLoS ONE, 2014).

For data set [1], the target named is T1, Recombinant human cathepsin K (Homo sapiens, UniProt P43235).
T1 construct: made in house
T1 sequence (P43235 115-329): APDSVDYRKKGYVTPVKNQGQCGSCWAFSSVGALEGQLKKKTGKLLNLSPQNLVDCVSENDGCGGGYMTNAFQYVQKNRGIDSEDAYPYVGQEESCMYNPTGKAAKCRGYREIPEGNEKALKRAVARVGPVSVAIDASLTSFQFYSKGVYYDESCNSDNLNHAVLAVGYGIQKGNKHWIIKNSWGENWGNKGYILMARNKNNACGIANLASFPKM
Put plainly: Thermal stability of cathepsin K at pH 7.4 in the presence of modifiers. Format: biochemical. As to the method:
Cathepsin K was incubated at 37°C in 50 mM Hepes buffer pH 7.40 containing 1 mM EDTA and 5 mM DTT in the presence or absence of each modifier. The final enzyme concentration was 0.2 µM and final compounds concentrations were 2 mM, except compound 2, which was used at a concentration of 1 mM. All experiments were performed in Eppendorf Protein LoBind Tubes to minimize the adsorption of proteins on tube walls. Aliquots were withdrawn from the reaction mixtures at regular time intervals and their residual activity measured using the substrate Z-FR↓AMC (5 µM final concentration). Inactivation curves had exponential profiles that were fitted with the mathematical model for one-phase exponential decay to determine the half-life of the enzyme in each reaction mixture.

In data set [2] the target is T1, Recombinant human cathepsin K. Put plainly: Azocasein degradation assays. In kind it is biochemical. As to conditions: pH 5.5; substrate azocasein 3 mg/ml; 0.1 µM cathepsin K, 30 min 37°C, pH 5.50; compounds up to 2 mM (compound 2: 1 mM); read-out: Residual activity. An excerpt:
Figure 4 Effect of modifiers on the degradation of macromolecular substrates. (A) Effect of increasing concentrations of compounds 1 and 2 on the degradation of calf skin collagen. Molecular mass standards are given in kDa and positions of α, β and γ chains of intact collagen are marked by arrows. (B) Effect of modifiers on azocasein degradation. (C) Effect of glycosaminoglycans and clusterin on azocasein degradation. Two different concentrations of each glycosaminoglycan were used in the experiments (10 µg/ml and 200 µg/ml). Error bars in panels B and C represent the SEM of three experiments. All experiments were performed in 100 mM sodium acetate buffer pH 5.50 containing 1 mM EDTA and 5 mM DTT, as described in detail in the Materials and Methods section. Abbreviations: CPD – compound, CS – chondroitin sulfate, DS – dermatan sulfate, HP – heparin.
Azocasein (Sigma-Aldrich, USA) was dissolved in 100 mM sodium acetate buffer pH 5.50 containing 1 mM EDTA and 5 mM DTT at a concentration of 3 mg/ml. Samples were incubated with 0.1 µM cathepsin K for 30 min at 37°C in the presence of each compound. […] Reactions were stopped by addition of trichloroacetic acid (final concentration 5% v/v), centrifuged, clear supernatants mixed with 0.5 M NaOH and the concentrations of solubilized peptides determined by measuring the absorbance at 440 nm. All experiments were performed in triplicates and appropriate blanks were run to take into account the absorption of azocasein and compounds alone. IC 50 values were determined as described previously.

For data set [3] the target is unchanged. The data set can be described thus: Collagenolytic assays (calf skin collagen, SDS-PAGE). Format: biochemical. Also noted: key to collagen: qualitative value: qualitative values of 1 and 0 were used to signify inhibition and lack thereof, respectively; qualitative values of 1 and 0 were used to signify inhibition and lack thereof, respectively; a value of -1 was used to describe the concentration-dependent roles of glycosaminoglycans. As to the method:
The use of synthetic substrates is practical for the determination of the mechanisms of modification. […] Therefore, all modifiers were also tested with two macromolecular substrates, calf skin collagen and azocasein. The collagenolytic activity was tested quantitatively by following the fragmentation of the characteristic type I collagen pattern into smaller products on SDS-PAGE after incubation of the samples with cathepsin K in the presence and absence of modifiers.
Soluble calf skin collagen (Worthington Biochemical Corporation, USA) was diluted in 100 mM sodium acetate buffer pH 5.50 containing 1 mM EDTA and 5 mM DTT to a final concentration of 0.5 mg/ml. Experiments were started by addition of cathepsin K (final enzyme concentration 0.6 µM) to the reaction mixture containing collagen and increasing concentrations of modifier. All assays were performed at 28°C with shaking on an Eppendorf Thermomixer Comfort. Samples were incubated for 2 hours and the reactions then blocked by addition of E-64 to a final concentration of 1 µM. 10 µg of digested collagen were analyzed by SDS-PAGE on 8% polyacrylamide gels and protein bands visualized by Coomassie Brilliant Blue R-250 staining.

Data set [4] is described as follows: Solubility in aqueous buffers. Format: physicochemical. As to conditions: aqueous buffer, kinetic from dmso stock. As to the method: Recombinant human cathepsin K was prepared as described previously. Chemical probes were obtained from the U.S. NCI/DTP Open Chemical Repository or from ChemBridge (USA). All compounds were soluble in aqueous buffers at concentrations of at least 2 mM, except for compound 2, which was soluble up to a maximal concentration of 1 mM. Stock solutions of all compounds were prepared in DMSO. The fluorogenic substrate Z-FR↓AMC (benzyloxycarbonyl-Phe-Arg-7-amino-4-methylcoumarin) was from Bachem (Switzerland).

Where two headings read alike, the source gives them in different places. Where only a bound is given, the exact number is not on record here.

A word on the solubility: it is the concentration that dissolves in the medium under given conditions. On to `OC(c1cc(-c2ccc(C(F)(F)F)cc2)nc(C(F)(F)F)c1)C1CCCCN1` (centres unmarked) [Compound 2, Piperidin-2-yl-[2-(trifluoromethyl)-6-[4-(trifluoromethyl)phenyl]pyridin-4-yl] methanol], for which the “stability: ln(sf), sf = ratio of half-lives in the presence and absence of modifier” value in data set [1] (37 °C and pH 7.4) is recorded as 0.79. The “Increase of stability (half-life) of cathepsin K” value in data set [1] (pH 7.4, 37°C, versus enzyme only) is “about 2 fold”. Besides, in data set [2], the remaining activity amounted to 93 ± 7%. Also, in data set [3] (SDS-PAGE, increasing concentrations of modifier), the “Effect on degradation of calf skin collagen” value was “concentration-dependent inhibitory effect”. Moreover, the “collagen: qualitative value” in data set [3] (activity modification matrix) is listed as 1. Moreover, the IC50 is around 500 µM in data set [3] (degradation of calf skin collagen, read-out: IC 50 (estimated)) and 500 µM in data set [3] (substrate calf skin collagen 0.5 mg/ml, 0.6 µM cathepsin K, 2 hours 28°C, pH 5.50, estimated, read-out: IC 50). Besides, the solubility in data set [4] was at most 1000 µM.
